A short description of this data set: passive permeability, PAMPA, ADME assay (AID 1508612). As to conditions: pH 7.4, 30.0 min, 50.0 µM. On the technique in general: In PAMPA a lipid-coated filter parts donor from acceptor wells.

As usually defined, the Papp is a coefficient for how fast a substance crosses the barrier. `Cc1ccc(NC(=O)N(Cc2cn(C)c3ccccc23)C2CCCCC2)cc1C` returned a Papp of 20.7 ×10⁻⁶ cm/s.
With `CC1=C(C(=O)Nc2nnc(-c3ccccc3)s2)C(c2nn(C)cc2Cl)N=C(Nc2nc3ccccc3o2)N1` (configuration not stated), the Papp is 23.1 ×10⁻⁶ cm/s. The Papp values of the last two compounds are within 1.5-fold of each other.
To `CCOc1ccc(N2C(=O)c3n[nH]c(-c4cccs4)c3C2c2cccc(F)c2)cc1` (configuration not stated) belongs 82.4 ×10⁻⁶ cm/s; to `Cc1c(Cl)cccc1-n1ncc(C(=O)Nc2ccc(Br)cc2F)c1C1CCNCC1`, above 1000 ×10⁻⁶ cm/s.
To `O=C(Nc1ccc(C(=O)Nc2nccs2)cc1)c1ccc2ccccc2c1` belongs above 1000 ×10⁻⁶ cm/s; to `CCc1ccccc1Nc1ncnc2c1cnn2-c1ccc(Cl)cc1`, 253 ×10⁻⁶ cm/s.
Turning to `CC#CC(=O)N1CCC[C@H]1c1nc(-c2ccc(C(=O)Nc3ccccn3)cc2)c2c(N)nccn12`, the apparent permeability coefficient (Papp) worked out at 39.9 ×10⁻⁶ cm/s.
For `COc1cc(-c2nc(-c3c(C)noc3C)cc3c2cc(C)n3CCN(C)C)ccn1` the value was above 1000 ×10⁻⁶ cm/s; for `CCCCOc1ccc(CNC(=O)c2cc3n(n2)CCCN(Cc2ccc(C)cc2)C3=O)cc1`, below 1 ×10⁻⁶ cm/s.
For `O=C(O)CCC(=O)Nc1nc(-c2ccccc2)cs1` the value was below 1 ×10⁻⁶ cm/s.
Compound `CCc1ccc(CNc2ccc3c(c2)ncn3C(C)(C)C)cc1` yielded a Papp above 1000 ×10⁻⁶ cm/s.
For `COc1ccc(Nc2nc(-c3ccncc3)nc3ccccc23)cc1F` the value was 107 ×10⁻⁶ cm/s; for `O=C(C1CCN(c2nc(-c3ccc(Br)cc3)cs2)CC1)N1CCNCC1`, 484 ×10⁻⁶ cm/s; for `O=C(Nc1nc(-c2ccc(F)cc2)cs1)c1ccncc1NS(=O)(=O)c1ccccc1Cl`, above 1000 ×10⁻⁶ cm/s.
To `Cc1ccnc(NC(=S)N2CCN(c3ccccc3C(F)(F)F)CC2)c1` belongs 726 ×10⁻⁶ cm/s; to `Cc1cc(NS(=O)(=O)c2ccc(NC(=O)Cc3ccc(F)c(Cl)c3)cc2)no1`, 10.4 ×10⁻⁶ cm/s.
To `COC(=O)c1ccc(NC(=O)c2nc3ccccc3n(C)c2=O)cc1` belongs 350 ×10⁻⁶ cm/s; to `CN(C)c1cccc(-c2c3c(=O)n(-c4ccccc4Cl)[nH]c3cc(=O)n2C)c1`, 13.9 ×10⁻⁶ cm/s.
In turn, `CC(=O)Nc1cccc(Nc2nc3ccccc3n3c(C)nnc23)c1` showed a Papp of 266 ×10⁻⁶ cm/s.
To `C[C@@]1(O)[C@H](O)[C@@H](CO)O[C@H]1n1ccc(N)nc1=O` belongs 9.97 ×10⁻⁶ cm/s; to `Cc1cccc(-n2ncc3c2CCCC3NC(=O)c2c(F)ccc(F)c2F)c1C` (configuration not stated), 916 ×10⁻⁶ cm/s.
To `COc1ccc(OC)c(-c2nc3c(C#N)c[nH]n3c2NC2CCCCC2)c1` belongs above 1000 ×10⁻⁶ cm/s.
For `Cc1c(NC2=C(Cl)C(=O)N(c3ccccc3)C2=O)c(=O)n(-c2ccccc2)n1C` the value was 123 ×10⁻⁶ cm/s; for `Cc1ccc(-c2csc(NC(=O)c3ccncc3NS(=O)(=O)c3ccc(C)cc3)n2)cc1`, 530 ×10⁻⁶ cm/s; for `CC(C)(C#N)c1ccc(N2C(=O)OCc3cnc4ccc(-c5cnc6ccccc6c5)cc4c32)cc1`, 47.5 ×10⁻⁶ cm/s.
`O=S(=O)(Nc1nccs1)c1ccc(NCc2ccccc2)cc1` had a Papp of 320 ×10⁻⁶ cm/s.
For `CC(=O)c1cccc(-c2csc(N3CCC(C(N)=O)CC3)n2)c1` the value was 328 ×10⁻⁶ cm/s; for `CC(C)CN(C[C@@H](O)[C@H](Cc1ccccc1)NC(=O)O[C@@H]1CO[C@H]2OCC[C@H]21)S(=O)(=O)c1ccc(N)cc1`, 192 ×10⁻⁶ cm/s.
Consider `CCN(CC)CCOc1ccc2c(=O)c3ccc(Cl)cc3n(CCN(CC)CC)c2c1`, for which the Papp is above 1000 ×10⁻⁶ cm/s.
For `Fc1cc(Nc2nc(-c3ccncc3)nc3ccccc23)ccc1-c1ccc2[nH]ncc2c1` the value was 42 ×10⁻⁶ cm/s; for `CCCCOc1ccc(CC(=O)NO)cc1`, 133 ×10⁻⁶ cm/s; for `NC(=O)COc1ccc(C2CC(=O)Nc3n[nH]c(Nc4ccccc4)c32)cc1` (configuration not stated), 2.8 ×10⁻⁶ cm/s.
To `O=C1NC(=O)C(c2cnc3ccccn23)=C1c1cn2c3c(cccc13)CN(C(=O)N1CCOCC1)CC2` belongs 82.9 ×10⁻⁶ cm/s; to `CCOc1ccc(CCNC(=O)c2cc3cccnc3n2Cc2cccc(C)c2)cc1OCC`, above 1000 ×10⁻⁶ cm/s.
To `COc1ccc(S(=O)(=O)N2CCOCC2)cc1NC(=O)c1cccc(-n2cccc2)c1` belongs below 1 ×10⁻⁶ cm/s.
On to `Clc1ccccc1-c1nccc(-n2ccnc2)n1`, for which the Papp is above 1000 ×10⁻⁶ cm/s.
To `CCCCOc1ccccc1C(=O)Nc1ccccc1C(=O)Nc1cccc(S(=O)(=O)C(F)(F)F)c1` belongs 5.2 ×10⁻⁶ cm/s.
